Source: US9125828B2, “MOC compositions” (Givaudan SA, priority 2010, dated 2015)

System: axillary malodour
Experiment: Deodorancy of pro-perfumes compared with their breakdown products
Type: in vivo
Conditions: pro perfumes that undergo scission when exposed to UV light; no data given
Text: The effectiveness of compositions of the present invention comprising 2-Ethoxy-4-formylphenyl (E)-3-(2-hydroxyphenyl) acrylate and/or (E)-Dec-9-enyl 3-(2-hydroxyphenyl) acrylate, two group A materials, in axillary malodour counteracting deodorant is particularly surprising. These materials are pro perfumes that undergo scission into other compounds when exposed to UV light, this is disclosed in EP 936211. The use of materials that require light activation is counter-intuitive for application in underarm products such as deodorants and antiperspirants.

Q: With `CCOc1cc(C=O)ccc1OC(=O)/C=C/c1ccccc1O` [2-Ethoxy-4-formylphenyl (E)-3-(2-hydroxyphenyl)acrylate] as the compound, how does the “deodorancy relative to breakdown products” value read?
A: better deodorancy than their breakdown products

Q: For `C=CCCCCCCCCOC(=O)/C=C/c1ccccc1O` [(E)-Dec-9-enyl 3-(2-hydroxyphenyl)acrylate], which “deodorancy relative to breakdown products” value is on record?
A: better deodorancy than their breakdown products
